Assay results: the supplement of paper PMC6045584
± gives the standard deviation of the averaged measurements.

Assays:
RESVERATROL = compound: Oc1ccc(/C=C/c2cc(O)cc(O)c2)cc1 [RESVERATROL]; assay: surviving fraction relative to DMSO-only wells; higher = less growth inhibition; conditions: exposure time: 5 days
Method in brief: (§1)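 Lines were retained only if, across three screens, replicate Pearson r was >0.7 and median Z' was >0.3. Viability was measured as CellTiter-Glo luminescence and reported as surviving fraction relative to the median of DMSO-only wells. Readings followed 10 minutes at room temperature, after log-phase tumour cells seeded at 250–500 per well in 384-well plates had been exposed, from 24 hours after seeding, continuously for five days to inhibitors at 0.5, 1, 5, 10, 50, 100, 500 and 1000 nM.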

FLUOROURACIL = compound: O=c1[nH]cc(F)c(=O)[nH]1 [FLUOROURACIL]; assay: area under dose-response curve of surviving fraction (unscaled, Aref=0) (surviving fraction x log10(nM)); higher = more resistant; conditions: exposure time: 5 days; dose range 0.5-1000 nM
Method in brief: (§2)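 Inhibitor was applied to tumour cell lines at eight concentrations (0.5 to 1000 nM) for five days in 384-well plates. Luminescence from CellTiter-Glo, scaled to DMSO-only wells, gave surviving fractions in three screens per line, and these were fitted by 3-parameter logistic regression with the drc R package. The area under the curve is an unscaled activity area. Aref was 0, and dose was on a log10 scale.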

[1] = compound: CCN(CC)CCCCNc1ncc2cc(-c3cc(OC)cc(OC)c3)c(NC(=O)NC(C)(C)C)nc2n1; assay: surviving fraction relative to DMSO-only wells; higher = less growth inhibition; conditions: exposure time: 5 days
Method in brief: as §1

NUTLIN3 = compound: COc1ccc(C2=N[C@@H](c3ccc(Cl)cc3)[C@@H](c3ccc(Cl)cc3)N2C(=O)N2CCNC(=O)C2)c(OC(C)C)c1 [NUTLIN3]; assay: area under dose-response curve of surviving fraction (unscaled, Aref=0) (surviving fraction x log10(nM)); higher = more resistant; conditions: exposure time: 5 days; dose range 0.5-1000 nM
Method in brief: as §2

[2] = compound: CCN(CC)CCCCNc1ncc2cc(-c3cc(OC)cc(OC)c3)c(NC(=O)NC(C)(C)C)nc2n1; assay: as above; conditions: exposure time: 5 days; dose range 0.5-1000 nM
Method in brief: as §2

DOXORUBICIN = compound: COc1cccc2c1C(=O)c1c(O)c3c(c(O)c1C2=O)C[C@@](O)(C(=O)CO)C[C@@H]3O[C@H]1C[C@H](N)[C@H](O)[C@H](C)O1 [DOXORUBICIN]; assay: as above; conditions: exposure time: 5 days; dose range 0.5-1000 nM
Method in brief: as §2

Test System | surviving fraction (RESVERATROL; 0.5 nM) | surviving fraction (RESVERATROL; 1 nM) | surviving fraction (RESVERATROL; 5 nM) | surviving fraction (RESVERATROL; 10 nM) | surviving fraction (RESVERATROL; 50 nM) | surviving fraction (RESVERATROL; 100 nM) | surviving fraction (RESVERATROL; 500 nM) | surviving fraction (RESVERATROL; 1000 nM) | area under dose-response curve (FLUOROURACIL) | surviving fraction ([1]; 0.5 nM) | surviving fraction ([1]; 1 nM) | surviving fraction ([1]; 5 nM) | surviving fraction ([1]; 10 nM) | surviving fraction ([1]; 50 nM) | surviving fraction ([1]; 100 nM) | surviving fraction ([1]; 500 nM) | surviving fraction ([1]; 1000 nM) | area under dose-response curve (NUTLIN3) | area under dose-response curve [2] | area under dose-response curve (DOXORUBICIN)
CCK81 LARGE INTESTINE | 0.73 ± 0.017 | 0.79 ± 0.13 | 0.71 ± 0.065 | 0.724 ± 0.037 | 0.671 ± 0.058 | 0.793 ± 0.11 | 0.844 ± 0.085 | 0.728 ± 0.039 | 2.58 |  |  |  |  |  |  |  |  |  |  | 
G292 BONE | 0.995 ± 0.051 | 0.988 ± 0.011 | 1.06 ± 0.018 | 1.07 ± 0.032 | 1.01 ± 0.027 | 1.055 ± 0.0077 | 1.04 ± 0.017 | 1.03 ± 0.045 | 3.29 | 0.836 ± 0.27 | 0.97 ± 0.048 | 0.958 ± 0.027 | 0.918 ± 0.042 | 0.495 ± 0.17 | 0.387 ± 0.008 | 0.181 ± 0.012 | 0.18 ± 0.0066 | 3.34 | 2.16 | 1.77
HCC38 BREAST | 1.21 ± 0.057 | 1.37 ± 0.15 | 1.48 ± 0.13 | 1.56 ± 0.2 | 1.37 ± 0.063 | 1.2 ± 0.16 | 1.24 ± 0.14 | 1.18 ± 0.18 | 2.87 | 1.15 ± 0.23 | 0.97 ± 0.19 | 1.15 ± 0.17 | 1.12 ± 0.19 | 0.979 ± 0.37 | 1.04 ± 0.18 | 0.824 ± 0.17 | 0.846 ± 0.2 | 4.18 |  | 1.77
HCC70 BREAST | 1.09 ± 0.07 | 1.11 ± 0.11 | 1.14 ± 0.13 | 1.04 ± 0.049 | 1.13 ± 0.066 | 1.06 ± 0.054 | 1.11 ± 0.075 | 0.999 ± 0.022 |  | 0.977 ± 0.084 | 1 ± 0.017 | 0.957 ± 0.12 | 1.07 ± 0.041 | 1.05 ± 0.06 | 1.08 ± 0.037 | 0.962 ± 0.055 | 1 ± 0.09 | 3.49 | 3.36 | 2.04
HMLE3 BREAST | 1.01 ± 0.067 | 1.03 ± 0.089 | 1.02 ± 0.051 | 1.03 ± 0.061 | 1.04 ± 0.096 | 1.03 ± 0.13 | 1.06 ± 0.055 | 1.12 ± 0.12 |  | 0.929 ± 0.061 | 0.934 ± 0.049 | 0.895 ± 0.05 | 0.995 ± 0.056 | 0.764 ± 0.049 | 0.683 ± 0.052 | 0.428 ± 0.0075 | 0.41 ± 0.023 |  | 2.61 | 1.36
HMT3552 BREAST | 1.06 ± 0.038 | 1.12 ± 0.047 | 1.09 ± 0.027 | 1.03 ± 0.067 | 1.07 ± 0.039 | 1.17 ± 0.056 | 1.12 ± 0.044 | 1.17 ± 0.055 | 3.23 | 1.15 | 0.971 | 0.993 | 1.05 | 0.89 | 0.98 | 0.827 | 0.803 |  |  | 
HS57T BREAST | 0.971 ± 0.038 | 1.01 ± 0.073 | 0.984 ± 0.11 | 1.07 ± 0.028 | 1.02 ± 0.034 | 1.04 ± 0.063 | 1.01 ± 0.047 | 0.998 ± 0.11 |  | 0.932 ± 0.022 | 0.899 ± 0.03 | 0.977 ± 0.067 | 0.952 ± 0.015 | 0.67 ± 0.03 | 0.693 ± 0.078 | 0.577 ± 0.021 | 0.579 ± 0.089 |  |  | 
HS578T BREAST | 1.15 ± 0.15 | 1.15 ± 0.036 | 1.24 ± 0.14 | 1.14 ± 0.049 | 1.03 ± 0.074 | 1.27 ± 0.11 | 1.17 ± 0.22 | 1.12 ± 0.19 | 2.85 | 0.97 ± 0.1 | 1.03 ± 0.19 | 0.973 ± 0.098 | 1.02 ± 0.02 | 0.836 ± 0.021 | 0.801 ± 0.056 | 0.886 ± 0.096 | 0.738 ± 0.095 |  | 3.03 | 1.93
